Laboratory results: patent US20240238287A1, “PHARMACEUTICAL COMPOSITION FOR PREVENTING OR TREATING CANCER” (priority 2021, published 2024)

Assays:
NCIN87 cells = assay: CyQUANT cell proliferation assay, intestinal subtype cell line; assay type: cell-based; details: DON 1, 50, 150 μM, CB839 1, 5, 25 μM, BPTES 5, 10, 25 μM, FIGS. 5 to 7
Procedure: (§1) NCIN87, an intestinal subtype cell line, and HS746T, a stem-like subtype cell line, were dispensed in a 96-well plate (black) with 5000 cells each, and replaced with glutamine-deficient culture medium (Gibco) the next day. Then, the cell lines were treated with DON (1 μM, 50 μM, 150 μM; selleckchem, cat no. S8620), CB839 (1 μM, 5 μM, 25 μM; cayman, cat no. S7655) or BPTES (5 μM, 10 μM, 25 μM; MCE, cat no. HY-12683) and the treatment time was 0 hours, and the cell culture medium was discarded at 24, […] and 72 hours, and stored in an ultra-low temperature freezer at −80° C. After culturing the cells stored in this way at room temperature, 200 μl of cell lysate containing GR dye contained in the cell viability assay kit (CyQUANT cell proliferation assay, Invitrogen) was placed in each well of the cultured cells and incubated at room temperature for 5 min. Afterwards, The intensity of fluorescence was measured at a wavelength of 480 nm and 520 nm excitation using a fluorescence photometer (thermo, varioskan flash 3001), and the measured value was standardized to the number of cells at 0 hour, quantified in %, and the value was shown in FIGS. 4 to 7.

HS746T cells [1] = assay: CyQUANT cell proliferation / viability assay, stem-like subtype cell line; assay type: cell-based; details: for cell proliferation: HS746T, DON 1, 50, 150 μM, CB839 1, 5, 25 μM, BPTES 5, 10, 25 μM, FIGS. 5 to 7; for survival of HS746T, inhibitor with glutamine deficiency vs each alone: Gln(−), PHGDH inhibitor 25 μM, SHMT inhibitor 1 μM, MTHFD2 inhibitor 0.5 μM, FIGS. 9 to 11
Procedure: as §1
As described in Example 4, after dispensing and incubating the stem-like subtype cell line HS746T, replacing it with a glutamine-deficient culture medium, administering a PHGDH inhibitor (25 μM), SHMT inhibitor (1 μM) or MTHFD2 inhibitor (0.5 μM), and using a cell viability assay kit, the survival rate measured using the cell viability assay kit was shown in FIGS. 9 to 11.

[2] = tested on: GA077 stem-like subtype organoid; assay: Organoid diameter by optical microscopy; assay type: cell-based; details: CB839 5 μM alone, D1 to D4, FIG. 8
[3] = tested on: glutamine-dependent liver cancer cells; details: cited from earlier work
SEM-type GC cells [4] = assay: Cell death by GLS/PHGDH inhibitor cotreatment and antioxidant rescue; assay type: cell-based; details: addition of antioxidant
SEM-type GC cells [5] = assay: Mitochondrial ROS estimated by MitoSOX; assay type: cell-based; details: NCT503 treatment and glutamine starvation
HS746T cells [6] = assay: Ratio of reduced (GSH) to oxidized glutathione (GSSG); assay type: cell-based; details: HS746T cultured without glutamine plus PHGDH inhibition
HS746T cells [7] = assay: Amount of NADP; assay type: cell-based; details: PHGDH-inhibited cells with glutamine deficiency

Compound	cell proliferation (NCIN87 cells)	cell proliferation (HS746T cells [1])	survival of HS746T, inhibitor with glutamine deficiency vs each alone (HS746T cells [1])	other results
O=C(Cc1ccccc1)Nc1nnc(CCSCCc2nnc(NC(=O)Cc3ccccc3)s2)s1 [BPTES]	inhibited	not reduced		
O=C(Cc1cccc(OC(F)(F)F)c1)Nc1ccc(CCCCc2nnc(NC(=O)Cc3ccccn3)s2)nn1 [CB839]	inhibited	not reduced		organoid size (diameter) [2]: not reduced in size; antitumor effect of single-drug treatment [3]: very limited antitumor effect
[N-]=[N+]=CC(=O)CC[C@H](N)C(=O)O [DON]	inhibited	not reduced		
Cc1c(N2CCN(C)[C@@H](C)C2)ccc2c3c(c(=O)oc12)CN(C(=O)c1ccc(NS(C)(=O)=O)c(OC(F)(F)F)c1)CC3 [MTHFD2i]			significant synergistic effect	
CC(=O)N[C@@H](CS)C(=O)O [NAC, N-acetylcysteine]				rescue of cell death induced by cotreatment with CB839 and NCT503 (SEM-type GC cells [4]): partially rescued
Cc1cc(C)nc(NC(=S)N2CCN(Cc3ccc(C(F)(F)F)cc3)CC2)c1 [NCT503]			significant synergistic effect	mitochondrial ROS estimated by MitoSOX (SEM-type GC cells [5]): highest; ratio of reduced glutathione (GSH) to oxidized glutathione (GSSG) (HS746T cells [6]): decreased; amount of NADP (HS746T cells [7]): lowest
Cc1n[nH]c2c1C(c1cc(CO)cc(-c3ccccc3)c1)(C(C)C)C(C#N)=C(N)O2 (stereo not drawn) [SHMTi]			significant synergistic effect	
